Assay results taken from patent US20130109635A1, “Humanin Decreases Liver Fat and Visceral Fat Accumulation” (priority 2011, published 2013).

Experiments:
[1] = test system: Microsomal triglyceride transport protein (MTTP); test: Liver gene expression in HFD animals: MTTP; type: in vivo, mice; settings: livers of HFD animals, HNG 2 mg/kg daily
Description: (§1) To understand the mechanisms through which Humanin decreases liver lipid content, representative genes involved in lipid synthesis (SREBP-1, FAS), lipid oxidation (CPT1b) and lipid packaging and export from liver were studied. […] The role of MTTP was confirmed by studying enzyme activity.

[2] = test system: triglyceride secretion from liver; test: Acute ICV infusion of HNG with tyloxapol injection, plasma TG levels, rats; type: in vivo, Sprague-Dawley rats
Protocol: (§2) The effect of humanin analog, HNG, on hepatic lipid fluxes was investigated. In the acute study, HNG was infused into third ventricle (ICV) of awake, unstressed and chronically catheterized Sprague-Dawley rats and C57BLK6 mice and studied plasma triglyceride (TG) levels following an injection of Tyloxapol (Triton WR1339, Sigma-Aldrich Corp, St. Louis, Mo.), an inhibitor of TG clearance. Groups of animals were also challenged with high fat diet (HFD) of 60% fat for one month and were treated with either daily injections of saline or of HNG (2 mg/kg). Body weight and Food intake were monitored twice a week. At the end of one month, liver fat was assessed both by histology and estimation of tissue triglycerides and plasma was collected. Total amount of visceral fat (VF) was determined and the specific depots were meticulously dissected and weighed. Tissue samples were snap-frozen for subsequent analysis.
Acute effects of Humanin on liver fluxes: The effect of HN was studied in acute and chronic treatment models. […]
(§3) With infusion of tyloxapol, there was a steady increase in plasma triglyceride levels in both groups from inhibition of TG clearance. […] The rate of TG secretion was calculated in the animals based on plasma triglyceride levels at 0 and 120 min time points using the following equation: secretion rate of TG/hr mg/min=(TG at 120 min−TG at 0 min)/number of hours.

[3] = test system: triglyceride secretion from liver; test: Acute ICV infusion of HNG with tyloxapol injection, plasma TG levels, mice; parameters: species or system C57BLK6 mice; settings: mouse, in vivo
Protocol: as §2, §3

Apo B = test: Liver gene expression in HFD animals: Apo B; type: in vivo, mice; settings: livers of HFD animals, HNG 2 mg/kg daily
Description: as §1

[4] = High fat diet (60% fat) for one month with daily injections of HNG: food intake, body weight, visceral fat, liver fat, serum lipids; type: in vivo, mice; settings: HNG 2 mg/kg daily
Protocol: as §2
Chronic effects of Humanin on liver lipid content: Groups of animals were challenged with high fat diet (HFD-60% fat) for one month and were treated with either daily injections of saline or HNG (2 mg/kg). At the end of one month, liver fat were assessed both by histology and estimation of tissue triglycerides.

MTTP = MTTP enzyme activity in liver of HFD animals (Roar Biomedical); type: in vivo, mice; settings: HNG 2 mg/kg daily, p<0.01
Description: as §1

SREBP-1 = test: Liver gene expression in HFD animals: SREBP-1; type: in vivo, mice; settings: data not shown
Description: as §1

CPT1b = test: Liver gene expression in HFD animals: CPT1b; type: in vivo, mice; settings: data not shown
Description: as §1

FAS = test: Liver gene expression in HFD animals: FAS; type: in vivo, mice; settings: data not shown
Description: as §1

Row | Sequence | expression of MTTP vs control [1] | serum TG levels at 120 min ([2]; 120 min after tyloxapol 600 mg/kg, p<0.05 vs aCSF 4.33±0.33) [mg/mL] | rate of TG secretion ([2]; (TG at 120 min − TG at 0 min)/number of hours, p<0.05 vs aCSF 2.23±0.16) [mg/mL/h] | triglyceride secretion from liver [3] | expression of Apo B vs control (Apo B) | visceral fat (VF) gain vs control ([4]; HFD for 4 weeks) | weight gain vs control ([4]; HFD for 4 weeks) | liver fat (hepatic triglyceride content) ([4]; HFD one month, p<0.05 vs control 70.83±3.74) | MTTP activity vs control (MTTP) | expression of SREBP-1 vs control (SREBP-1) | expression of CPT1b vs control (CPT1b) | expression of FAS vs control (FAS)
1 | MAPRGFSCLLLLTGEIDLPVKRRA (ANALOG OF HUMAN HUMANIN PEPTIDE) [HNG] | significantly higher | 5.5 ± 0.29 | 2.7 ± 0.2 | increases | significantly higher | gained significantly less VF | gained significantly less weight | 59.78±2.24 μg/mg of tissue | significantly higher |  |  | 
2 | MAPRGFSCLLLLTSEIDLPVKRRA (HOMO SAPIENS) [HN, humanin peptide] |  |  |  |  |  |  |  |  |  | no differences | no differences | no differences
